Results as given in patent US10647747B2, “Cyclosporin derivatives and uses thereof” (S&T Global Inc., priority 2010, dated 2020).
Like-named read-outs stand apart in the source and are kept apart here. *1 amine or outer side, *2 acyl side, *3 side chain or, on linkers, in order; H or OH if unused. Where a SMILES comes first, the peptide text is derived from it. [ ]: non-standard residue; d: D form. The star is where a group is joined. ξ: configuration not given here. MeBmt = C/C=C/C[C@@H](C)[C@@H](O)[C@H](NC)C(=O)O; X14 = CCOCOC(C)(C)C[C@@H](C(=O)[*:2])N(C)[*:1]; X6 = CCN(CC)CCS[C@H](C(=O)[*:2])N(C)[*:1]; X3 = CC=CCC(C)C(O)C(C(=O)[*:2])N(C)[*:1]; X5 = CSCOC(C)(C)CC(C(=O)[*:2])N(C)[*:1]; X4 = CCN(CC)CCSC(C(=O)[*:2])N(C)[*:1]; NMeIle(3ξ) = CCC(C)[C@H](NC)C(=O)O; NMeL = CN[CH](CC(C)C)C(=O)O; NMeV = CN[CH](C(=O)O)C(C)C; dNMeC = CN[C@H](CS)C(=O)O; Et2NCH2CH2 = CCN(CC)CC*; Abu = CC[CH](N)C(=O)O

Tested on: HCV replicon in cell line ET (luc-ubi-neo/ET), Huh7 human hepatoma
Experiment: HCV subgenomic replicon assay, luciferase end point
Type: cell-based
Conditions: read-out: Antiviral activity EC50
[1] = Table 13, HCV replicon luciferase
[2] = Table 16, HCV replicon luciferase
[3] = HCV subgenomic replicon, cell line ET (luc-ubi-neo/ET) Huh7, luciferase end point
[4] = Table 12, HCV replicon luciferase
[5] = Hepatitis C virus, Huh-7, Table 14, HCV replicon luciferase

In the case of `CC=CCC(C)C(O)C1C(=O)NC(CC)C(=O)N(C)C(SCCN(CC)CC)C(=O)N(C)C(CC(C)(C)OCSC)C(=O)NC(C(C)C)C(=O)N(C)C(CC(C)C)C(=O)NC(C)C(=O)NC(C)C(=O)N(C)C(CC(C)C)C(=O)N(C)C(CC(C)C)C(=O)N(C)C(C(C)C)C(=O)N1C` (centres unmarked) (cyclo([X3][Abu][X4][X5]V[NMeL]AA[NMeL][NMeL][NMeV]); configuration not given here) [listing 1 of 2 here], the EC50 [1] is reported as 130 nM.
In the case of `CCCCC(C)C(O)C1C(=O)NC(CC)C(=O)N(C)CC(=O)N(C)C(CC(C)(C)OC)C(=O)NC(C(C)C)C(=O)N(C)C(CC(C)C)C(=O)NC(C)C(=O)NC(C)C(=O)N(C)C(CC(C)C)C(=O)N(C)C(CC(C)C)C(=O)N(C)C(C(C)C)C(=O)N1C` (centres unmarked) [[(γ-Methoxy)-N-MeLeu]-4-dihydrocyclosporin], the EC50 [1] is reported as 350 nM.
`CC=CCC(C)C(O)C1C(=O)NC(CC)C(=O)N(C)C(CSCCCN2CCN(CCC)CC2)C(=O)N(C)C(CC(C)(C)O)C(=O)NC(C(C)C)C(=O)N(C)C(CC(C)C)C(=O)NC(C)C(=O)NC(C)C(=O)N(C)C(CC(C)C)C(=O)N(C)C(CC(C)C)C(=O)N(C)C(C(C)C)C(=O)N1C` (centres unmarked) showed an EC50 [2] of 50 nM.
With `CC=CCC(C)C(O)C1C(=O)NC(CC)C(=O)N(C)C(COCCCN(CC)CC)C(=O)N(C)C(CC(C)(C)OC)C(=O)NC(C(C)C)C(=O)N(C)C(CC(C)C)C(=O)NC(C)C(=O)NC(C)C(=O)N(C)C(CC(C)C)C(=O)N(C)C(CC(C)C)C(=O)N(C)C(C(C)C)C(=O)N1C` (centres unmarked) the EC50 [3] was 100 nM.
For `CC=CCC(C)C(O)C1C(=O)NC(CC)C(=O)N(C)C(SCCN(C)C)C(=O)N(C)C(C(C)C)C(=O)NC(C(C)C)C(=O)N(C)C(CC(C)C)C(=O)NC(C)C(=O)NC(C)C(=O)N(C)C(CC(C)C)C(=O)N(C)C(CC(C)C)C(=O)N(C)C(C(C)C)C(=O)N1C` [(S)-2-(N,N-Dimethylamino)ethylthio-Sar]-3-[N-MeVal]-4-cyclosporin], the EC50 [4] was 130 nM.
`CC=CCC(C)C(O)C1C(=O)NC(CC)C(=O)N(C)C(CSCCCN2CCN(CC)CC2)C(=O)N(C)C(CC(C)(C)O)C(=O)NC(C(C)C)C(=O)N(C)C(CC(C)C)C(=O)NC(C)C(=O)NC(C)C(=O)N(C)C(CC(C)C)C(=O)N(C)C(CC(C)C)C(=O)N(C)C(C(C)C)C(=O)N1C` (centres unmarked) showed an EC50 [2] of 50 nM.
For `C/C=C/C[C@@H](C)[C@@H](O)[C@H]1C(=O)N[C@@H](CC)C(=O)N(C)[C@H](SCCN(CC)CC)C(=O)N(C)[C@@H](C(C)CC)C(=O)N[C@@H](C(C)C)C(=O)N(C)[C@@H](CC(C)C)C(=O)N[C@@H](C)C(=O)N[C@H](C)C(=O)N(C)[C@@H](CC(C)C)C(=O)N(C)[C@@H](CC(C)C)C(=O)N(C)[C@@H](C(C)C)C(=O)N1C` (stereo partly drawn) [(R)-2-(N,N-Diethylamino)ethylthio-Sar]-3-[N-MeIle]-4-cyclosporin] (cyclo(A[dA][NMeL][NMeL][NMeV][MeBmt][Abu][X6][NMeIle(3ξ)]V[NMeL])), the EC50 [4] was 1870 nM.
`CC=CCC(C)C(O)C1C(=O)NC(CC)C(=O)N(C)C(CSCCCCN(CC)CC)C(=O)N(C)C(CC(C)(C)O)C(=O)NC(C(C)C)C(=O)N(C)C(CC(C)C)C(=O)NC(C)C(=O)NC(C)C(=O)N(C)C(CC(C)C)C(=O)N(C)C(CC(C)C)C(=O)N(C)C(C(C)C)C(=O)N1C` (centres unmarked) showed an EC50 [2] of 70 nM.
In the case of `CC=CCC(C)C(O)C1C(=O)NC(CC)C(=O)N(C)C(SCCN(CC)CC)C(=O)N(C)C(CC(C)(C)OCSC)C(=O)NC(C(C)C)C(=O)N(C)C(CC(C)C)C(=O)NC(C)C(=O)NC(C)C(=O)N(C)C(CC(C)C)C(=O)N(C)C(CC(C)C)C(=O)N(C)C(C(C)C)C(=O)N1C` (centres unmarked) (cyclo([X3][Abu][X4][X5]V[NMeL]AA[NMeL][NMeL][NMeV]); configuration not given here) [listing 2 of 2 here], the EC50 [4] is reported as 110 nM.
`C/C=C/C[C@@H](C)[C@@H](O)[C@H]1C(=O)N[C@@H](CC)C(=O)N(C)[C@H](CSCCN(C)C)C(=O)N(C)[C@@H](CC(C)C)C(=O)N[C@@H](C(C)C)C(=O)N(C)[C@@H](CC(C)C)C(=O)N[C@@H](C)C(=O)N[C@H](C)C(=O)N(C)[C@@H](CC(C)C)C(=O)N(C)[C@@H](CC(C)C)C(=O)N(C)[C@@H](C(C)C)C(=O)N1C` (single isomer, unassigned; isomer b) [[(S)-(2-(N,N-Dimethylamino)ethylthio)methyl-Sar]-3-cyclosporin (isomer B)] was tested, and the EC50 [3] was 170 nM.
`CC=CCC(C)C(O)C1C(=O)NC(CC)C(=O)N(C)C(SCCCN2CCOCC2)C(=O)N(C)C(CC(C)(C)OC)C(=O)NC(C(C)C)C(=O)N(C)C(CC(C)C)C(=O)NC(C)C(=O)NC(C)C(=O)N(C)C(CC(C)C)C(=O)N(C)C(CC(C)C)C(=O)N(C)C(C(C)C)C(=O)N1C` [[(S)-3-(N-Morpholino)propylthio-Sar]-3-[(γ-methoxy)-N-MeLeu]-4-cyclosporin] gave an EC50 [1] of 60 nM.
With `C/C=C/C[C@@H](C)[C@@H](O)[C@H]1C(=O)N[C@@H](CC)C(=O)N(C)[C@H](CSCCCN(CC)CC)C(=O)N(C)[C@@H](CC(C)(C)O)C(=O)N[C@@H](C(C)C)C(=O)N(C)[C@@H](CC(C)C)C(=O)N[C@@H](C)C(=O)N[C@H](C)C(=O)N(C)[C@@H](CC(C)C)C(=O)N(C)[C@@H](CC(C)C)C(=O)N(C)[C@@H](C(C)C)C(=O)N1C` the EC50 [5] was 30 nM.
With `CC=CCC(C)C(O)C1C(=O)NC(CC)C(=O)N(C)C(CSCCN(CC)CC)C(=O)N(C)C(CC(C)(C)OC)C(=O)NC(C(C)C)C(=O)N(C)C(CC(C)C)C(=O)NC(C)C(=O)NC(C)C(=O)N(C)C(CC(C)C)C(=O)N(C)C(CC(C)C)C(=O)N(C)C(C(C)C)C(=O)N1C` (centres unmarked) the EC50 [3] was 90 nM.
`CC=CCC(C)C(O)C1C(=O)NC(CC)C(=O)N(C)C(CSCCN(CC)C(C)C)C(=O)N(C)C(CC(C)(C)O)C(=O)NC(C(C)C)C(=O)N(C)C(CC(C)C)C(=O)NC(C)C(=O)NC(C)C(=O)N(C)C(CC(C)C)C(=O)N(C)C(CC(C)C)C(=O)N(C)C(C(C)C)C(=O)N1C` (centres unmarked) gave an EC50 [3] of 70 nM.
Work on `CC=CCC(C)C(O)C1C(=O)NC(CC)C(=O)N(C)C(CSCCN2CCCCC2)C(=O)N(C)C(CC(C)(C)O)C(=O)NC(C(C)C)C(=O)N(C)C(CC(C)C)C(=O)NC(C)C(=O)NC(C)C(=O)N(C)C(CC(C)C)C(=O)N(C)C(CC(C)C)C(=O)N(C)C(C(C)C)C(=O)N1C` (centres unmarked) yielded an EC50 [3] of 80 nM.
Work on `CC=CCC(C)C(O)C1C(=O)NC(CC)C(=O)N(C)CC(=O)N(C)C(CO)C(=O)NC(C(C)C)C(=O)N(C)C(CC(C)C)C(=O)NC(C)C(=O)NC(C)C(=O)N(C)C(CC(C)C)C(=O)N(C)C(CC(C)C)C(=O)N(C)C(C(C)C)C(=O)N1C` (centres unmarked) [[N-MeSer]-4-cyclosporin] yielded an EC50 [1] of 560 nM.
With `C/C=C/C[C@@H](C)[C@@H](O)[C@H]1C(=O)N[C@@H](CC)C(=O)N(C)[C@H](CSCCCN(C)C)C(=O)N(C)[C@@H](CC(C)(C)O)C(=O)N[C@@H](C(C)C)C(=O)N(C)[C@@H](CC(C)C)C(=O)N[C@@H](C)C(=O)N[C@H](C)C(=O)N(C)[C@@H](CC(C)C)C(=O)N(C)[C@@H](CC(C)C)C(=O)N(C)[C@@H](C(C)C)C(=O)N1C` the EC50 [5] was 50 nM.
With `C/C=C/C[C@@H](C)[C@@H](O)[C@H]1C(=O)N[C@@H](CC)C(=O)N(C)[C@H](CSCCN(CC)CC)C(=O)N(C)[C@@H](CC(C)(C)OCOCC)C(=O)N[C@@H](C(C)C)C(=O)N(C)[C@@H](CC(C)C)C(=O)N[C@@H](C)C(=O)N[C@H](C)C(=O)N(C)[C@@H](CC(C)C)C(=O)N(C)[C@@H](CC(C)C)C(=O)N(C)[C@@H](C(C)C)C(=O)N1C` (cyclo(A[dA][NMeL][NMeL][NMeV][MeBmt][Abu][dNMeC](Et2NCH2CH2)[X14]V[NMeL])) the EC50 [5] was 20 nM.
Compound `C/C=C/C[C@@H](C)[C@@H](O)[C@H]1C(=O)N[C@@H](CC)C(=O)N(C)CC(=O)N(C)[C@@H](CC(C)(C)OCSC)C(=O)N[C@@H](C(C)C)C(=O)N(C)[C@@H](CC(C)C)C(=O)N[C@@H](C)C(=O)N[C@H](C)C(=O)N(C)[C@@H](CC(C)C)C(=O)N(C)[C@@H](CC(C)C)C(=O)N(C)[C@@H](C(C)C)C(=O)N1C` [[(γ-Methylthio)methoxy-N-MeLeu]-4-cyclospori] has an EC50 [1] of 400 nM.
`CC=CCC(C)C(O)C1C(=O)NC(CC)C(=O)N(C)C(CSCCN(C)C(C)C)C(=O)N(C)C(CC(C)(C)O)C(=O)NC(C(C)C)C(=O)N(C)C(CC(C)C)C(=O)NC(C)C(=O)NC(C)C(=O)N(C)C(CC(C)C)C(=O)N(C)C(CC(C)C)C(=O)N(C)C(C(C)C)C(=O)N1C` (centres unmarked) was tested, and the EC50 [3] was 100 nM.
In the case of `C/C=C/C[C@@H](C)[C@@H](O)[C@H]1C(=O)N[C@@H](CC)C(=O)N(C)[C@H](COCCCN2CCOCC2)C(=O)N(C)[C@@H](CC(C)(C)O)C(=O)N[C@@H](C(C)C)C(=O)N(C)[C@@H](CC(C)C)C(=O)N[C@@H](C)C(=O)N[C@H](C)C(=O)N(C)[C@@H](CC(C)C)C(=O)N(C)[C@@H](CC(C)C)C(=O)N(C)[C@@H](C(C)C)C(=O)N1C` [[(R)-(3-(N-Morpholino)propoxy)methyl-Sar]-3-[(γ-hydroxy)-NMeLeu]-4-cyclosporin], the EC50 (Table 14, HCV replicon luciferase) is reported as 40 nM.
For `CC=CCC(C)C(O)C1C(=O)NC(CC)C(=O)N(C)C(CSCCCCN(CC(C)C)CC(C)C)C(=O)N(C)C(CC(C)(C)O)C(=O)NC(C(C)C)C(=O)N(C)C(CC(C)C)C(=O)NC(C)C(=O)NC(C)C(=O)N(C)C(CC(C)C)C(=O)N(C)C(CC(C)C)C(=O)N(C)C(C(C)C)C(=O)N1C` (centres unmarked), the EC50 [2] was 40 nM.
`CC=CCC(C)C(O)C1C(=O)NC(CC)C(=O)N(C)C(COCCN2CCOCC2)C(=O)N(C)C(CC(C)(C)OC)C(=O)NC(C(C)C)C(=O)N(C)C(CC(C)C)C(=O)NC(C)C(=O)NC(C)C(=O)N(C)C(CC(C)C)C(=O)N(C)C(CC(C)C)C(=O)N(C)C(C(C)C)C(=O)N1C` [[(R)-(2-(N-Morpholino)ethoxy)methyl-Sar]-3-[(γ-methoxy)-N-MeLeu]-4-cyclosporin] showed an EC50 [3] of 150 nM.
For `C/C=C/C[C@@H](C)[C@@H](O)[C@H]1C(=O)N[C@@H](CC)C(=O)N(C)[C@H](CSCCCN2CCN(C)CC2)C(=O)N(C)[C@@H](CC(C)(C)O)C(=O)N[C@@H](C(C)C)C(=O)N(C)[C@@H](CC(C)C)C(=O)N[C@@H](C)C(=O)N[C@H](C)C(=O)N(C)[C@@H](CC(C)C)C(=O)N(C)[C@@H](CC(C)C)C(=O)N(C)[C@@H](C(C)C)C(=O)N1C`, the EC50 [3] was 90 nM and the EC50 [2] was 40 nM.
Compound `C/C=C/C[C@@H](C)[C@@H](O)[C@H]1C(=O)N[C@@H](CC)C(=O)N(C)[C@H](COCCCN2CCCCC2)C(=O)N(C)[C@@H](CC(C)(C)O)C(=O)N[C@@H](C(C)C)C(=O)N(C)[C@@H](CC(C)C)C(=O)N[C@@H](C)C(=O)N[C@H](C)C(=O)N(C)[C@@H](CC(C)C)C(=O)N(C)[C@@H](CC(C)C)C(=O)N(C)[C@@H](C(C)C)C(=O)N1C` [[(R)-(3-(N-Piperidinyl)propoxy)methyl-Sar]-3-[(γ-hydroxy)-N-MeLeu]-4-cyclosporin] has an EC50 [3] of 150 nM.
